Consider six molecules from patent publication US9149519B2, “Chimeric human immunodeficiency virus type 1 (HIV-1) with enhanced dendritic cell and macrophage tropism comprising the simian immunodeficiency virus (SIV) minimal Vpx packaging domain” (New York University, priority 2012, dated 2015).

The test system of experiment [1] is IFN-β mRNA. Description: IFN-β mRNA induction in infected MDDC by qRT-PCR. In kind it is cell-based, human. The note with it: AZT 25 μM or Raltegravir 10 μM added prior to infection.
The test system of experiment [2] is MDDC. In kind it is cell-based, human.
In experiment [3] the test system is MDM and MDDC. Description: Infectivity on MDM and MDDC (summary statements). In kind it is cell-based, human. The note with it: accessory protein provided in trans.
For experiment [4], the system named is MDM. The class given is cell-based, human.
The subject of experiment [5] is resting CD4+ T cells. The note with it: Siliciano et al. 2012; cited from earlier work.

For `Cc1cn([C@H]2C[C@H](N=[N+]=[N-])[C@@H](CO)O2)c(=O)[nH]c1=O` [AZT], the “Effect on IFN-β induction by Vpx-containing p6 chimeric virus” value in experiment [1] is recorded as “blocked”.

As to `Cc1nnc(C(=O)NC(C)(C)c2nc(C(=O)NCc3ccc(F)cc3)c(O)c(=O)n2C)o1` [Raltegravir], the “Effect on IFN-β induction by Vpx-containing p6 chimeric virus” value in experiment [1] was “blocked”.

For the molecule “HIV-2rod Vpx: HIV-2 Vpx accessory protein from codon-optimized expression vector”, in experiment [2], the “Activity relative to SIVmac239 Vpx” value is “about 8%” and the “Effect of packaged accessory protein on infectivity of the p6 chimeric virus” value (shortened to “Effect of packaged accessory protein”) was “enhanced the infectivity of the p6 chimeric virus”. For the same molecule, in experiment [3], the “Enhancement of MDM and MDDC infection” value was “only slightly enhanced MDM and MDDC infection”. Further, the “Effect of packaged accessory protein” value in experiment [4] was “enhanced the infectivity of the p6 chimeric virus on MDM”.

Consider `O=C(CCCCCCC(=O)Nc1ccccc1)NO` [SAHA, suberoylanilide hydroxamic acid], for which the Virus reactivation entry in experiment [5] is “induced virus reactivation from resting CD4+ T cells”.

B1: SIVmac239 Vpx: lentiviral accessory protein, codon-optimized expression vector, SEQ ID NO: 85 (protein)
chain: MSDPRERIPPGNSGEETIGEAFEWLNRTVEEINREAVNHLPRELIFQVWQRSWEYWHDEQGMSPSYVKYRYLCLIQKALFMHCKKGCRCLGEGHGAGGWRPGPPPPPPPGLA
modifications: Simian immunodeficiency virus
In the case of B1, the “Effect of packaged accessory protein” value in experiment [2] is given as “enhanced the infectivity of the p6 chimeric virus”; in experiment [4], “enhanced the infectivity of the p6 chimeric virus on MDM”.

B2: SIVagm Vpr: SIVagm protein termed Vpr but more similar to Vpx (protein)
chain: MAEGRDSRERRPGWLEIWDLSREPWDEGLRDMVAELNQEAQRHFGRELLFQVWNFCQEEGERNGAPMIERAYRYYRLVQKALFVHFRCGCRRRTPFEPYEERRNGVGGGRDGREPPPGLA
modifications: Simian immunodeficiency virus
notes: SIVagm protein termed Vpr but more similar to Vpx
B2: the “Effect of packaged accessory protein” value in experiment [2] and in experiment [4] was “had no detectable effect” throughout. Moreover, in experiment [3], the “Enhancement of MDM and MDDC infection” value is recorded as “did not enhance the infection”.
